Measurements reported in US4599346A, “Propan-2-ol derivatives, a process for their production and medicaments containing these compounds” (Ludwig Heumann & Co., GmbH, priority 1983, dated 1986).

How the values were obtained:
[1] = target: T1, histamine-H2 -receptors (Cavia porcellus, UniProt P47747); assay: H2-antagonistic activity: pA2 values in vitro on the isolated atrium of guinea pigs
T1 construct: in vitro on the isolated atrium of guinea pigs; from tissue; host or cells: isolated atrium of guinea pigs
T1 sequence (P47747 whole entry): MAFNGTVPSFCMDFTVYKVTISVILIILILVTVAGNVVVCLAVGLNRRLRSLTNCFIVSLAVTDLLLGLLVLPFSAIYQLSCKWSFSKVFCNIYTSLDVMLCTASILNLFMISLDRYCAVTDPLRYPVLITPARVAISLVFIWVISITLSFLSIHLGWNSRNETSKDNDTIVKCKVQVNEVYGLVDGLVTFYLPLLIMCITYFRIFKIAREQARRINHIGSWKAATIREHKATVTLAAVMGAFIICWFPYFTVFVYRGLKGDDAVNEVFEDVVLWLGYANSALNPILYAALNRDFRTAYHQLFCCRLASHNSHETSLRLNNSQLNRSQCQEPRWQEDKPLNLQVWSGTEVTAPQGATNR
From the text: J. Pharmacol. Chemother.", 27, 427 (1966) and Black et al., "Nature", 236, 385 (1971)].
A recognized method of measuring H2 -antagonistic activity is based on determination of the pA2 -values in vitro on the isolated atrium of guinea pigs

[2] = background statement; result in words; cited from earlier work

Row | SMILES | Kb [1] | half life [2]
1 | Nc1n[s+]([O-])nc1NCC(O)COc1cccc(CN2CCCCC2)c1 (stereo not drawn) [Example 1, 4-amino-3-[2-hydroxy-3-[3-(1-piperidinylmethyl)-phenoxy]propyl]-amino-1,2,5-thiadiazole-1-oxide] | 49 nM | –
2 | CN/C(=N/CCSCc1nc[nH]c1C)NC#N [Cimetidine] | – | relatively short half life
3 | Nc1c(NCC(O)COc2cccc(CN3CCCCC3)c2)c(=O)c1=O (stereo not drawn) [Example 2, 2-amino-1-[2-hydroxy-3-[3-(1-piperidinylmethyl)-phenoxy]propyl]-aminocyclobut-1-ene-3,4-dione] | 72.4 nM | –
